In brackets after ≈: the same amount, converted by molar mass.
Tests used:
Escherichia coli [1] = experiment: Antimicrobial activity against Escherichia coli ATCC 25922 incubated for 18 to 24 hrs by disk diffusion method; assay type: functional
Bacillus subtilis = experiment: Antimicrobial activity against Bacillus subtilis 10B incubated for 18 to 24 hrs by disk diffusion method; assay type: functional
Staphylococcus aureus [2] = experiment: Antimicrobial activity against Staphylococcus aureus ATCC 25923 incubated for 18 to 24 hrs by disk diffusion method; assay type: functional
Pseudomonas aeruginosa [3] = experiment: Antimicrobial activity against Pseudomonas aeruginosa ATCC 27853 incubated for 18 to 24 hrs by disk diffusion method; assay type: functional
[4] = tested on: Mycobacterium tuberculosis; experiment: Antimicrobial activity against Mycobacterium tuberculosis H37Rv incubated for 10 days by microbroth dilution method; assay type: functional; details: 240 h
Staphylococcus aureus [5] = experiment: Antimicrobial activity against methicillin-susceptible Staphylococcus aureus ATCC 29213 incubated for 16 hrs by CLSI method; assay type: functional; details: ATCC 29213, 16 h
Staphylococcus aureus [6] = experiment: Antimicrobial activity against healthcare-acquired methicillin-resistant Staphylococcus aureus NRS70 incubated for 16 hrs by CLSI method; assay type: functional; details: NRS70, 16 h
Candida albicans = experiment: Antifungal activity against Candida albicans after overnight incubation by agar well diffusion method; assay type: functional
Aspergillus clavatus = experiment: Antifungal activity against Aspergillus clavatus after overnight incubation by agar well diffusion method; assay type: functional
Staphylococcus aureus [7] = experiment: Antimicrobial activity against methicillin-resistant Staphylococcus aureus ATCC 25923 by microdilution method; assay type: functional
Staphylococcus aureus [8] = experiment: Antimicrobial activity against Staphylococcus aureus ATCC 29213 by microdilution method; assay type: functional
Escherichia coli [9] = experiment: Antimicrobial activity against Escherichia coli ATCC […] by microdilution method; assay type: functional
Escherichia coli [10] = experiment: Antimicrobial activity against multidrug resistance Escherichia coli ATCC 35218 by microdilution method; assay type: functional
Bacillus cereus = experiment: Antimicrobial activity against Bacillus cereus 709 Roma incubated for 18 to 24 hrs by microbroth dilution method; assay type: functional
[11] = tested on: Yersinia pseudotuberculosis; experiment: Antimicrobial activity against Yersinia pseudotuberculosis ATCC 911 incubated for 18 to 24 hrs by microbroth dilution method; assay type: functional
Staphylococcus aureus [12] = experiment: Antimicrobial activity against Staphylococcus aureus ATCC 25923 incubated for 18 to 24 hrs by microbroth dilution method; assay type: functional
Pseudomonas aeruginosa [13] = experiment: Antimicrobial activity against Pseudomonas aeruginosa ATCC 43288 incubated for 18 to 24 hrs by microbroth dilution method; assay type: functional
[14] = tested on: Mycolicibacterium smegmatis; experiment: Antimicrobial activity against Mycobacterium smegmatis ATCC 607 incubated for 48 to 72 hrs by microbroth dilution method; assay type: functional
Enterococcus faecalis = experiment: Antimicrobial activity against Enterococcus faecalis ATCC 29212 incubated for 18 to 24 hrs by microbroth dilution method; assay type: functional
Helicobacter pylori [15] = experiment: Antimicrobial activity against Helicobacter pylori clinical isolate 2 after 7 days by two-fold agar dilution method; assay type: functional; details: clinical isolate 2, 168 h
Helicobacter pylori [16] = experiment: Antimicrobial activity against Helicobacter pylori clinical isolate 1 after 7 days by two-fold agar dilution method; assay type: functional; details: clinical isolate 1, 168 h
PC-3 = experiment: Growth inhibition of human PC3 cells by MTT assay; assay type: functional, cell-based

Q: With `CCn1cc(C(=O)O)c(=O)c2cc(F)c(Nn3c(=O)[nH]cc(F)c3=O)c(F)c21` as the molecule, how does the MIC (Escherichia coli [1]) read?
A: 120 mg/L (≈ 303 µM)

Q: What about the MIC (Bacillus subtilis) of the same molecule?
A: > 500 mg/L

Q: What about the MIC (Staphylococcus aureus [2]) of the same molecule?
A: 390 mg/L (≈ 984 µM)

Q: And the MIC (Pseudomonas aeruginosa [3])?
A: > 500 mg/L

Q: With `C[C@H]1COc2c(-c3cc4ccccc4oc3=O)c(F)cc3c(=O)c(C(=O)O)cn1c23` as the molecule, how does the MIC [4] read?
A: 12.5 mg/L (≈ 30.7 µM)

Q: For `CCn1cc(C(=O)O)c(=O)c2cc(F)c(NNc3n[nH]c(N)n3)c(F)c21`, which MIC (Escherichia coli [1]) is on record?
A: 390 mg/L (≈ 1070 µM)

Q: And the MIC (Bacillus subtilis)?
A: > 500 mg/L

Q: What about the MIC (Staphylococcus aureus [2]) of the same molecule?
A: 240 mg/L (≈ 657 µM)

Q: What about the MIC (Pseudomonas aeruginosa [3]) of the same molecule?
A: > 500 mg/L

Q: Which results are given for `COc1c(F)c(F)cc2c(=O)c(C(=O)N3CCSC3)cn(C3CC3)c12`?
A: MIC90 (Staphylococcus aureus [5]): > 201 mg/L; MIC90 (Staphylococcus aureus [6]): > 201 mg/L

Q: Which results are given for `CCn1cc(C(=O)O)c(=O)c2cc(F)c(Cl)cc21`?
A: MIC (Escherichia coli [1]): 0.355 mg/L (≈ 1.32 µM); MIC (Bacillus subtilis): 0.125 mg/L (≈ 0.464 µM); MIC (Staphylococcus aureus [2]): 0.535 mg/L (≈ 1.98 µM); MIC (Pseudomonas aeruginosa [3]): 116 mg/L (≈ 432 µM)

Q: What does the source list for `COc1c(N2CCN(C)CC2)c(F)cc2c(=O)c(C(=O)N/N=C\c3cccc([N+](=O)[O-])c3)cn(C3CC3)c12`?
A: inhibition zone (IZ) (Candida albicans): 12 mm; inhibition zone (IZ) (Aspergillus clavatus): 10 mm

Q: How did the MIC (Escherichia coli [1]) turn out when `CCn1cc(C(=O)O)c(=O)c2cc(F)c(NNc3c[nH]c(=O)[nH]c3=O)c(F)c21` was run?
A: 170 mg/L (≈ 432 µM)

Q: What about the MIC (Bacillus subtilis) of the same molecule?
A: > 500 mg/L

Q: What about the MIC (Staphylococcus aureus [2]) of the same molecule?
A: 195 mg/L (≈ 496 µM)

Q: And the MIC (Pseudomonas aeruginosa [3])?
A: > 500 mg/L

Q: With `O=C(O)c1cn(C2CC2)c2c(cc(F)c3nn(CN(N4CCOCC4)N4CCOCC4)c(=O)n32)c1=O` as the molecule, how does the MIC (Staphylococcus aureus [7]) read?
A: ≤ 2 mg/L

Q: And the MIC (Staphylococcus aureus [8])?
A: ≤ 0.25 mg/L

Q: What about the MIC (Escherichia coli [9]) of the same molecule?
A: ≤ 0.25 mg/L

Q: What about the MIC (Escherichia coli [10]) of the same molecule?
A: ≤ 2 mg/L

Q: With `CCn1cc(C(=O)O)c(=O)c2cc(F)c(N3CCN(Cn4nc(CN5CCN(c6ccc([N+](=O)[O-])cc6)CC5)n(-c5ccccc5)c4=O)CC3)cc21` as the molecule, how does the MIC (Bacillus cereus) read?
A: 0.03 to 0.25 mg/L (≈ 0.0421 to 0.351 µM)

Q: What about the MIC [11] of the same molecule?
A: 0.03 to 0.25 mg/L (≈ 0.0421 to 0.351 µM)

Q: What about the MIC (Staphylococcus aureus [12]) of the same molecule?
A: 0.24 to 0.48 mg/L (≈ 0.337 to 0.674 µM)

Q: And the MIC (Pseudomonas aeruginosa [13])?
A: 0.24 to 0.48 mg/L (≈ 0.337 to 0.674 µM)

Q: And the MIC [14]?
A: 0.244 to 0.25 mg/L (≈ 0.343 to 0.351 µM)

Q: What about the MIC (Enterococcus faecalis) of the same molecule?
A: 0.122 mg/L (≈ 0.171 µM)

Q: What does the source list for `CCn1cc(C(=O)O)c(=O)c2cc(F)c(Nn3c(=O)cc[nH]c3=O)c(F)c21`?
A: MIC (Escherichia coli [1]): 120 mg/L (≈ 317 µM); MIC (Bacillus subtilis): > 500 mg/L; MIC (Staphylococcus aureus [2]): 310 mg/L (≈ 819 µM); MIC (Pseudomonas aeruginosa [3]): > 500 mg/L

Q: With `COc1ccc(Nc2c(F)cc3c(=O)c(C(=O)O)cn(C4CC4)c3c2N)cc1` as the molecule, how does the MIC (Helicobacter pylori [15]) read?
A: 5 mg/L (≈ 13 µM)

Q: And the MIC (Helicobacter pylori [16])?
A: 2.5 mg/L (≈ 6.52 µM)

Q: For `CC1CNCCN1N(Cn1nc2c(F)cc3c(=O)c(C(=O)O)cn(C4CC4)c3n2c1=O)N1CCNCC1C` (configuration not stated), which MIC (Staphylococcus aureus [7]) is on record?
A: ≤ 1 mg/L

Q: What about the MIC (Staphylococcus aureus [8]) of the same molecule?
A: ≤ 0.5 mg/L

Q: And the MIC (Escherichia coli [9])?
A: ≤ 0.25 mg/L

Q: And the MIC (Escherichia coli [10])?
A: ≤ 2 mg/L

Q: What does the source list for `COc1ccc(OC)c(/C=N\NC(=O)c2cn(C3CC3)c3c(OC)c(N4CCN(C)CC4)c(F)cc3c2=O)c1`?
A: IC50 (PC-3): 3 mg/L (≈ 5.58 µM); inhibition zone (IZ) (Candida albicans): 10 mm; inhibition zone (IZ) (Aspergillus clavatus): 8 mm

Q: How did the MIC (Helicobacter pylori [15]) turn out when `Nc1c(Nc2ccc(F)cc2)c(F)cc2c(=O)c(C(=O)O)cn(C3CC3)c12` was run?
A: 5 mg/L (≈ 13.5 µM)

Q: And the MIC (Helicobacter pylori [16])?
A: 2.5 mg/L (≈ 6.73 µM)

Q: How did the MIC (Helicobacter pylori [15]) turn out when `COc1ccc(-n2nnc3c4c(cc(F)c32)c(=O)c(C(=O)O)cn4C2CC2)cc1` was run?
A: 1.3 mg/L (≈ 3.3 µM)

Q: What about the MIC (Helicobacter pylori [16]) of the same molecule?
A: 2.5 mg/L (≈ 6.34 µM)

Q: Which results are given for `CCN(CC)N(Cn1nc2c(F)cc3c(=O)c(C(=O)O)cn(C4CC4)c3n2c1=O)N(CC)CC`?
A: MIC (Staphylococcus aureus [7]): ≤ 32 mg/L; MIC (Staphylococcus aureus [8]): ≤ 8 mg/L; MIC (Escherichia coli [9]): ≤ 16 mg/L; MIC (Escherichia coli [10]): ≤ 32 mg/L

Q: Which MIC (Bacillus cereus) does the source give for `CCn1cc(C(=O)O)c(=O)c2cc(F)c(N3CCN(Cn4nc(CN5CCN(c6ccc([N+](=O)[O-])cc6)CC5)n(-c5ccc(F)cc5)c4=O)CC3)cc21` here?
A: 0.12 mg/L (≈ 0.164 µM)

Q: What about the MIC [11] of the same molecule?
A: 0.12 mg/L (≈ 0.164 µM)

Q: What about the MIC (Staphylococcus aureus [12]) of the same molecule?
A: 0.48 mg/L (≈ 0.658 µM)

Q: What about the MIC (Pseudomonas aeruginosa [13]) of the same molecule?
A: 0.24 mg/L (≈ 0.329 µM)

Q: And the MIC [14]?
A: 0.244 mg/L (≈ 0.334 µM)

Q: And the MIC (Enterococcus faecalis)?
A: 0.122 mg/L (≈ 0.167 µM)

Q: Which IC50 (PC-3) does the source give for `COc1c(N2CCN(C)CC2)c(F)cc2c(=O)c(C(=O)N/N=C\c3ccc([N+](=O)[O-])cc3)cn(C3CC3)c12` here?
A: 15 mg/L (≈ 28.7 µM)

Q: What about the “inhibition zone (IZ)” value (Candida albicans) of the same molecule?
A: 10 mm

Q: And the “inhibition zone (IZ)” value (Aspergillus clavatus)?
A: 8 mm

Q: What does the source list for `COc1c(N2CCCCC2)c(F)cc2c(=O)c(C(=O)Nc3nccs3)cn(C3CC3)c12`?
A: MIC90 (Staphylococcus aureus [5]): > 201 mg/L; MIC90 (Staphylococcus aureus [6]): > 201 mg/L

Q: For `CCn1cc(C(=O)O)c(=O)c2cc(F)c(N3CCN(Cn4nc(CN5CCN(c6ccc([N+](=O)[O-])cc6)CC5)n(-c5ccccc5)c4=S)CC3)cc21`, which MIC (Bacillus cereus) is on record?
A: 0.12 to 0.24 mg/L (≈ 0.165 to 0.33 µM)

Q: And the MIC [11]?
A: 0.06 mg/L (≈ 0.0824 µM)

Q: What about the MIC (Staphylococcus aureus [12]) of the same molecule?
A: 0.24 to 0.48 mg/L (≈ 0.33 to 0.66 µM)

Q: And the MIC (Pseudomonas aeruginosa [13])?
A: 0.03 to 0.24 mg/L (≈ 0.0412 to 0.33 µM)

Q: And the MIC [14]?
A: 0.244 to 0.25 mg/L (≈ 0.335 to 0.343 µM)

Q: And the MIC (Enterococcus faecalis)?
A: 0.122 to 0.25 mg/L (≈ 0.168 to 0.343 µM)

Q: With `CCn1cc(C(=O)O)c(=O)c2cc(F)c(N3CCN(Cn4nc(CN5CCN(c6ccc([N+](=O)[O-])cc6)CC5)n(Cc5ccccc5)c4=S)CC3)cc21` as the molecule, how does the MIC (Bacillus cereus) read?
A: 0.12 to 0.48 mg/L (≈ 0.162 to 0.647 µM)

Q: And the MIC (Staphylococcus aureus [12])?
A: 0.12 to 0.24 mg/L (≈ 0.162 to 0.324 µM)

Q: And the MIC (Pseudomonas aeruginosa [13])?
A: 0.06 to 0.48 mg/L (≈ 0.0809 to 0.647 µM)

Q: And the MIC [14]?
A: 0.244 mg/L (≈ 0.329 µM)

Q: What about the MIC (Enterococcus faecalis) of the same molecule?
A: 0.122 to 0.488 mg/L (≈ 0.164 to 0.658 µM)

Q: `CCn1cc(C(=O)O)c(=O)c2cc(F)c(F)cc21` was tested. Which MIC (Escherichia coli [1]) did it give?
A: 24.6 mg/L (≈ 97.3 µM)

Q: What about the MIC (Bacillus subtilis) of the same molecule?
A: 29.6 mg/L (≈ 117 µM)

Q: And the MIC (Staphylococcus aureus [2])?
A: 369 mg/L (≈ 1460 µM)

Q: And the MIC (Pseudomonas aeruginosa [3])?
A: 138 mg/L (≈ 547 µM)

Q: `CN1CCN(N(Cn2nc3c(F)cc4c(=O)c(C(=O)O)cn(C5CC5)c4n3c2=O)N2CCN(C)CC2)CC1` was tested. Which MIC (Staphylococcus aureus [7]) did it give?
A: ≤ 2 mg/L

Q: What about the MIC (Staphylococcus aureus [8]) of the same molecule?
A: ≤ 0.25 mg/L

Q: And the MIC (Escherichia coli [9])?
A: ≤ 0.25 mg/L

Q: What about the MIC (Escherichia coli [10]) of the same molecule?
A: ≤ 2 mg/L
